Test results taken from patent US8513264B2, “Combination therapy for the treatment of diabetes and related conditions” (Boehringer Ingelheim International GmbH, priority 2008, dated 2013).

Tests used:
[1] = tested on: Zucker Diabetic Fatty (ZDF) rats (ZDF/Crl-Lepr^fa); assay: Oral glucose tolerance test in overnight fasted 9-weeks old male ZDF rats; assay type: in vivo, rat; details: 9-weeks old ZDF rats; single oral dose 3 mg/kg 30 min before glucose load 2 g/kg; versus vehicle control
Protocol: (§1) According to a first example an oral glucose tolerance test is performed in overnight fasted 9-weeks old male Zucker Diabetic Fatty (ZDF) rats (ZDF/Crl-Lepr^fa). A pre-dose blood sample is obtained by tail bleed. Blood glucose is measured with a glucometer, and the animals are randomized for blood glucose (n=5/group). […] The animals receive an oral glucose load (2 g/kg) 30 min after compound administration. Blood glucose is measured in tail blood 15 min, 30 min, 60 min, and 90 min after the glucose challenge. Glucose excursion is quantified by calculating the reactive glucose AUC. The data are presented as mean±SEM. The two-sided unpaired Student t-test is used for statistical comparison of the control group and the active groups as well as between active groups.

[2] = tested on: Zucker Diabetic Fatty (ZDF) rats (ZDF/Crl-Lepr^fa); assay: Oral glucose tolerance test in overnight fasted 15-weeks old male ZDF rats (highly insulin-resistant model); assay type: in vivo, rat; details: 15-weeks old ZDF rats; single oral dose 3 mg/kg 30 min before glucose load 2 g/kg; versus vehicle control
Protocol: as §1, with “to a second example an” for “to a first example an”, “overnight fasted 15-weeks old male” for “overnight fasted 9-weeks old male”, “rats (ZDF/Crl-Lepr^fa). This aged ZDF rats serve as a highly insulin-resistant animal model. A pre-dose” for “rats (ZDF/Crl-Lepr^fa). A pre-dose”, “tail blood 30 min,” for “tail blood 15 min, 30 min,”, “60 min, 90 min, 120 min, and 180” for “60 min, and 90”, “min, and 180 min after” for “min, and 90 min after”

[3] = Excretion route at therapeutic oral dose levels; assay type: in vivo; details: mainly excreted via the liver

- excretion via the kidney [3]: < 7 % of the administered oral dose
SMILES: CC#CCn1c(N2CCC[C@@H](N)C2)nc2c1c(=O)n(Cc1nc(C)c3ccccc3n1)c(=O)n2C [Cpd. A, 1-[(4-methyl-quinazolin-2-yl)methyl]-3-methyl-7-(2-butyn-1-yl)-8-(3-(R)-amino-piperidin-1-yl)-xanthine]
- reduction of glucose excursion (reactive glucose AUC) [1]: 49%
- reduction of glucose excursion (reactive glucose AUC) [2]: 1%
